Reference: US10836763B2, “5 to 7 membered heterocyclic amides as JAK inhibitors” (priority 2018, dated 2020)

Columns and labels:
Lung S9 metabolism = format: in vitro ADME, human; conditions: for Compound Remaining at 60 min (%) / microsomal CLint at 1 µM: human lung S9, 1 μM compound, 1 mg/mL S9 protein, NADPH and PAPS; for microsomal CLint at 1 µM: lung S9 fraction, pH 7.4, read-out: Clearance; for Sulfate Appearance: qualitative, O-sulfate metabolite peak in human lung S9
Method: Assay 5: Lung S9 Metabolism […] Lung S9 fractions from human (lot 1410245) were purchased from XenoTech LLC (Lenexa, Kans.). NADPH (Sigma Aldrich, N1630) and 3-phosphoadenosine 5-phosphosulfate (PAPS) (Sigma Aldrich, A1651) were purchased from Sigma Aldrich (St. Louis, Mo.). Acetonitrile and water were obtained from VWR (Radnor, Pa.) and were of HPLC grade or better. Raloxifene and formic acid was purchased from Sigma Aldrich (St. Louis, Mo.). Lung S9 incubations were performed in a water bath at 37° C. in a 96-well polypropylene plate. […] All samples were centrifuged at 2250 g for 10 minutes at 5° C. Supernatant (50 μL) was taken from the centrifuged samples and diluted into 100 μL HPLC water containing internal standard. […] Mobile Phase A consisted of Water+0.2% formic acid and Mobile Phase B consisted of acetonitrile+0.2% formic acid. Peak integration was accomplished using Gubbs GMSU software (Gubbs Inc., Alpharetta, Ga.). For each sample, peak area ratios were calculated by dividing the analyte peak area by the internal standard peak area. […] Determination of sulfate metabolite formation was made qualitatively by observation of early-eluting peak in the parent ion channel which, based on historical internal data, corresponded to the O-sulfate metabolite of each parent compound.

JAK2 = JAK2 (Homo sapiens (Human), UniProt O60674); test: Biochemical JAK kinase assay (LanthaScreen), JAK2
Method: (§1) Assay 1: Biochemical JAK Kinase Assays
(§2) A panel of four LanthaScreen JAK biochemical assays (JAK1, 2, 3 and Tyk2) were carried in a common kinase reaction buffer (50 mM HEPES, pH 7.5, 0.01% Brij-35, 10 mM MgCl2, and 1 mM EGTA). Recombinant GST-tagged JAK enzymes and a GFP-tagged STAT1 peptide substrate were obtained from Life Technologies.
(§3) Serially diluted compounds were pre-incubated with each of the four JAK enzymes and the substrate in white 384-well microplates (Corning) at ambient temperature for 1 h. ATP was subsequently added to initiate the kinase reactions in 10 μL total volume, with 1% DMSO. […] Kinase reactions were allowed to proceed for 1 hour at ambient temperature before a 10 μL preparation of EDTA (10 mM final concentration) and Tb-anti-pSTAT1 (pTyr701) antibody (Life Technologies, 2 nM final concentration) in TR-FRET dilution buffer (Life Technologies) was added. The plates were allowed to incubate at ambient temperature for 1 h before being read on the EnVision reader (Perkin Elmer). Emission ratio signals (520 nm/495 nm) were recorded and utilized to calculate the percent inhibition values based on DMSO and background controls.
(§4) For dose-response analysis, percent inhibition data were plotted vs. compound concentrations, and IC50 values were determined from a 4-parameter robust fit model with the Prism software (GraphPad Software). Results were expressed as pIC50 (negative logarithm of IC50) and subsequently converted to pKi (negative logarithm of dissociation constant, Ki) using the Cheng-Prusoff equation.

Tyk2 = Tyk2 (Homo sapiens (Human), UniProt P29597); test: Biochemical JAK kinase assay (LanthaScreen), Tyk2
Method: as §1, §2, §3, §4

[1] = system: IL-2 stimulated STAT5 phosphorylation in Tall-1 human T cell line; test: Inhibition of IL-2 stimulated pSTAT5 in Tall-1 T cells; format: cell-based; conditions: TALL-1, 0.5 h, IL-2 300 ng/mL, 30 min, pSTAT5 AlphaLisa, read-out: Tall-1 pIC50 (converted)
Method: Assay 2: Inhibition of IL-2 Stimulated pSTAT5 in Tall-1 T Cells
The potency of test compounds for inhibition of interleukin-2 (IL-2) stimulated STAT5 phosphorylation was measured in the Tall-1 human T cell line (DSMZ) using AlphaLisa.
Phosphorylated STAT5 was measured via the AlphaLISA SureFire Ultra pSTAT5 (Tyr694/699) kit (PerkinElmer).
Compounds were serially diluted in DMSO and dispensed acoustically to empty wells. Assay media (phenol red-free DMEM (Life Technologies) supplemented with 10% FBS (ATCC)) was dispensed (4 μL/well) and plates shaken at 900 rpm for 10 mins. Cells were seeded at 45,000 cells/well in assay media (4 μL/well), and incubated at 37° C., 5% CO2 for 1 hour, followed by the addition of IL-2 (R&D Systems; final concentration 300 ng/mL) in pre-warmed assay media (4 μL) for 30 minutes. […] The lysate was shaken at 900 rpm for 10 minutes at room temperature (RT). Phosphorylated STAT5 was measured via the pSTAT5 AlphaLisa kit (PerkinElmer). Freshly prepared acceptor bead mixture was dispensed onto lysate (5 μL) under green filtered <100 lux light. Plates were shaken at 900 rpm for 2 mins, briefly spun down, and incubated for 2 hrs at RT in the dark. Donor beads were dispensed (5 μL) under green filtered <100 lux light. Plates were shaken at 900 rpm for 2 minutes, briefly spun down, and incubated overnight at RT in the dark. Luminescence was measured with excitation at 689 nm and emission at 570 nm using an EnVision plate reader (PerkinElmer) under green filtered <100 lux light.
To determine the inhibitory potency of test compounds in response to IL-2, the average emission intensity of beads bound to pSTAT5 was measured in a human T cell line. IC50 values were determined from analysis of the inhibition curves of signal intensity versus compound concentration. Data are expressed as pIC50 (negative decadic logarithm IC50) values (mean±standard deviation).

[2] = system: TSLP-evoked TARC release in human peripheral blood mononuclear cells; test: Inhibition of TSLP-evoked TARC release in human peripheral blood mononuclear cells; format: cell-based; conditions: PBMC from 3 to 5 donors, TSLP 10 ng/mL, 48 hours, TARC ELISA, read-out: pIC50 ± st. dev., inhibition of TSLP-evoked TARC release (converted)
Excerpt: Assay 4: Inhibition of TSLP-Evoked TARC Release in Human Peripheral Blood Mononuclear Cells
Thymic stromal lymphopoietin (TSLP) and thymus and activation-regulated chemokine (TARC) are overexpressed in asthmatic airways, and correlate with disease severity. In the lungs, TSLP may be released by bronchial epithelial cells in response to allergens and viral infections. TSLP signals through an IL-7Rα/TSLPR heterodimer found in a broad range of tissues and cell types, including epithelial cells, endothelial cells, neutrophils, macrophages, and mast cells. The binding of TSLP to its receptor induces a conformational change that activates JAK1 and JAK2 to phosphorylate various transcription factors, including STAT3 and STAT5. In immune cells, this triggers a cascade of intracellular events that result in cell proliferation, anti-apoptosis, dendritic cell migration, and production of Th2 cytokines and chemokines. In peripheral blood mononuclear cells (PBMC), TSLP has a proinflammatory effect by activating myeloid dendritic cells to attract and stimulate T cells, a process mediated by the chemoattractant TARC.
The potencies of the test compounds were measured for inhibition of TARC release.
PBMC aliquots (previously isolated from whole blood and frozen in aliquots at −80° C.) from 3 to 5 donors were thawed at 37° C. and added dropwise to 40 mL pre-warmed, sterile-filtered, complete RPMI media in 50 mL Falcon tubes. Cells were pelleted and resuspended in complete media at 2.24×10^6 cells/mL. Cells were seeded at […] (190,000 cells) per well in a tissue culture treated 96-well flat bottom microplate. Cells were allowed to rest for 1 hour at 37° C. with 5% CO2.
Compounds were received as 10 mM stock solutions in DMSO. 3.7-fold serial dilutions were performed to generate 9 concentrations of test compound in DMSO at 300× the final assay test concentration. […] After the 1 hour rest period, 95 µL of 2× compound was added to each well of PBMC, for a final assay concentration range of 33.33 μM to […]. 95 μL of 0.2% DMSO in complete media was added to the untreated control wells. Cells were pre-treated with compound for 1 hour at 37° C. with 5% CO2 prior to stimulation.
Recombinant human TSLP protein was reconstituted at 10 μg/mL in sterile DPBS with 0.1% BSA and stored in aliquots at −20° C. Immediately prior to use, an aliquot was thawed and prepared at 20× the final assay concentration in complete media. 10 μL of 20×TSLP was added to each well of PBMC, for a final assay concentration of 10 ng/mL. 10 μL of complete media was added to the unstimulated control wells. Cells were stimulated in the presence of compound for 48 hours at 37° C. with 5% CO2.
Following stimulation, the cell culture supernatants were harvested and TARC levels were detected by enzyme-linked immunosorbent assay (ELISA), using Human CCL17/TARC Quantikine ELISA Kit (R&D Systems # DDN00) according to the manufacturer's instructions.
For dose response analysis, the log [test compound (M)] was plotted versus the percent response values for each donor, and IC50 values were determined using a nonlinear regression analysis with GraphPad Prism Software using the 4-parameter sigmoidal dose-response algorithm with variable slope. Data are expressed as mean pIC50 (negative decadic logarithm IC50) values calculated from pIC50 values of individual donors and rounded to one decimal place.

JAK1 = JAK1 (Homo sapiens (Human), UniProt P23458); test: Co-crystal structure with JAK1; conditions: resolution of 2.28 Å
Excerpt: A co-crystal structure was obtained of compound D-1 bound to human JAK1 at a resolution of 2.28 Å. […] Seven specific hydrogen bonding interactions were identified based upon a distance of 3.5 Å or less between donor and acceptor atoms. Of particular note, a hydrogen bonding interaction was identified between the carbonyl of the exocyclic amide of compound D-1 and the sidechain of Arg879 of JAK1. A similar interaction can be expected for the compounds of the invention.

Tyk2, sequence (P29597 whole entry): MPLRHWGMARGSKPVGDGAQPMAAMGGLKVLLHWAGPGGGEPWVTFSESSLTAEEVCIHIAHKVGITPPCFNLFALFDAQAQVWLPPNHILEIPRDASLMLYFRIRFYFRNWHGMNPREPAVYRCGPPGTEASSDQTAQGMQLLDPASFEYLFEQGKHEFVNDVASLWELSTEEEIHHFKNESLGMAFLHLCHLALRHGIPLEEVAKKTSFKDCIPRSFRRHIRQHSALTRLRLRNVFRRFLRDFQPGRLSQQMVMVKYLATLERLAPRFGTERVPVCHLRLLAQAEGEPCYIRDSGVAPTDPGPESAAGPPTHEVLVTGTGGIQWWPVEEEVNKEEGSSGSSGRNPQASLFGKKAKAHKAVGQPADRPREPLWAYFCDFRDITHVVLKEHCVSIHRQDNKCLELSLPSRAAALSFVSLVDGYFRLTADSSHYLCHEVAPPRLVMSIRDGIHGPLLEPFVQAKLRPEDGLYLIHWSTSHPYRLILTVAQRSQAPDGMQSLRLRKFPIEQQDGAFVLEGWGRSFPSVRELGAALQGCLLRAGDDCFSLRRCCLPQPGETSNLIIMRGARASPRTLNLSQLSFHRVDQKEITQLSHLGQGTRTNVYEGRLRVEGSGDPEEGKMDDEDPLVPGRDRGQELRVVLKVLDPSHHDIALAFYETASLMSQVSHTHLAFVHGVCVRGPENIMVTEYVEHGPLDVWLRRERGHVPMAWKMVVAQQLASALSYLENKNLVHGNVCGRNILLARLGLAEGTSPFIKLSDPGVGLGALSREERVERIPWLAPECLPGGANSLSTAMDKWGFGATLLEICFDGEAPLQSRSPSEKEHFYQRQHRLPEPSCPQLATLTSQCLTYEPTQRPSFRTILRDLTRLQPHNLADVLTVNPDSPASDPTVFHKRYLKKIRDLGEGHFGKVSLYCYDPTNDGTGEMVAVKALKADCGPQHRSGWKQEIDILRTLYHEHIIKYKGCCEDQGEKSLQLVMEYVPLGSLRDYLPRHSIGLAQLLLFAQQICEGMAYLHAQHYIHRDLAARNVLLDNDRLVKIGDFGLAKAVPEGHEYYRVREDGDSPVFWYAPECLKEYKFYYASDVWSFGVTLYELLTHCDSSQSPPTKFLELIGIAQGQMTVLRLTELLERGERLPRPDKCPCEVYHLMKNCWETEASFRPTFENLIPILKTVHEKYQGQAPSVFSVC
JAK1, sequence (P23458 whole entry): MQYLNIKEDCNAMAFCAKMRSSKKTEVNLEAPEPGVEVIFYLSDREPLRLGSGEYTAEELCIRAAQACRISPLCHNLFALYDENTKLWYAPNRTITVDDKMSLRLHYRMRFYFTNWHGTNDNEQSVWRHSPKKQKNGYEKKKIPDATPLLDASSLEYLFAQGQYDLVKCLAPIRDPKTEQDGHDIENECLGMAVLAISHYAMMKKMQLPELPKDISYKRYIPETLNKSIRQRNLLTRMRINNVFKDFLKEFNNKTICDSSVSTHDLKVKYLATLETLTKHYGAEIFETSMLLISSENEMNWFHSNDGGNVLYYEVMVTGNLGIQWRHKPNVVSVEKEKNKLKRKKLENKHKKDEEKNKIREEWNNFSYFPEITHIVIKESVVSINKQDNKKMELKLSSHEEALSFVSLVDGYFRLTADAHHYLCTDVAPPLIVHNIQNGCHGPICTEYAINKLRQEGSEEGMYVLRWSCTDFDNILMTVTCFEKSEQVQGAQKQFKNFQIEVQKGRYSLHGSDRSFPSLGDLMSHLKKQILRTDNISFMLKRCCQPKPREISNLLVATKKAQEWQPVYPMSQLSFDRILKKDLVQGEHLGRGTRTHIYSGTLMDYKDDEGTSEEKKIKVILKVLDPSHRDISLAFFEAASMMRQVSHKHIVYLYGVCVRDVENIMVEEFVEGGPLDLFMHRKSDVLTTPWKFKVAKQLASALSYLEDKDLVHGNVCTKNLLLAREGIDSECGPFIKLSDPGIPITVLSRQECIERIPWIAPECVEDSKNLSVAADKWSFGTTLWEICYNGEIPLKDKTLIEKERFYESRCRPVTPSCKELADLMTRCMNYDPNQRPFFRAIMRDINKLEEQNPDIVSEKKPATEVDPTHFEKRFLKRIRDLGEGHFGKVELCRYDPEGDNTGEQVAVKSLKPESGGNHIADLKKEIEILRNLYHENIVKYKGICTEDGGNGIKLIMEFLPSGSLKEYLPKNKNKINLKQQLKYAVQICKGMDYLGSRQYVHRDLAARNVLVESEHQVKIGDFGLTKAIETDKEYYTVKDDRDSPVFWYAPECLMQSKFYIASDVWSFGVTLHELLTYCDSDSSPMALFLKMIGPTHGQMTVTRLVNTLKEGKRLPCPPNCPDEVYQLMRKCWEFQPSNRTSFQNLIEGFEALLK
JAK2, sequence (O60674 whole entry): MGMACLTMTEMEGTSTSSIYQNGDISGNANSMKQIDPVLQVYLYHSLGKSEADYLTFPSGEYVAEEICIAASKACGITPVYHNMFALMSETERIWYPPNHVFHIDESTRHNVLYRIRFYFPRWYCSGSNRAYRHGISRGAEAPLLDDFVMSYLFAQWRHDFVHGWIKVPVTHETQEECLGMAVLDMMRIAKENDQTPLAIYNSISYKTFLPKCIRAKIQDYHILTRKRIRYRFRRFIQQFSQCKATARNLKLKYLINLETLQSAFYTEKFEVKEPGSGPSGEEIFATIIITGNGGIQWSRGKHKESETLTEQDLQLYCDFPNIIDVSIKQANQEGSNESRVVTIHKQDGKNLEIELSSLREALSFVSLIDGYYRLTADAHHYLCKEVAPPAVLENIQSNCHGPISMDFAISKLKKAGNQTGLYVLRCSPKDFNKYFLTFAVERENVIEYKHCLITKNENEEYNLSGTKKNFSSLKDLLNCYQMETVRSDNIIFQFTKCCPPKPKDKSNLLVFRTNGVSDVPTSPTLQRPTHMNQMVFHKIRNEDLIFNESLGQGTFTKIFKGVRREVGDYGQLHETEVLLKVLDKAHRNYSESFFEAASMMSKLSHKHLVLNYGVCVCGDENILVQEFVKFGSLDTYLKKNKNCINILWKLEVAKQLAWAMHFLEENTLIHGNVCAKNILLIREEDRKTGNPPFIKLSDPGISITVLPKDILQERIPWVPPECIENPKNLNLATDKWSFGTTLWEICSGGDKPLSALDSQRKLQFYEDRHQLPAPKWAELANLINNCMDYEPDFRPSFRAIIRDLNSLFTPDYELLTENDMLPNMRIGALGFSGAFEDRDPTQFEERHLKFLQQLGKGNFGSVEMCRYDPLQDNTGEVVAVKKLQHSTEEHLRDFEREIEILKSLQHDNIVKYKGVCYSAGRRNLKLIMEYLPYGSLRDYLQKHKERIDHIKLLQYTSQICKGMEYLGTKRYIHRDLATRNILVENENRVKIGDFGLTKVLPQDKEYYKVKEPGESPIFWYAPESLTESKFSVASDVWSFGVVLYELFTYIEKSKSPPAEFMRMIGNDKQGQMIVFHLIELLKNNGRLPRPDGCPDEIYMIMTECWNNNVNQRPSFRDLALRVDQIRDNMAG

| Compound | Compound Remaining at 60 min (%) (Lung S9 metabolism) | microsomal CLint at 1 µM (Lung S9 metabolism) | Sulfate Appearance (Lung S9 metabolism) | JAK2 pKi (JAK2) | Tyk2 pKi (Tyk2) | IC50 [1] | IC50 [2] | binding site in co-crystal structure (JAK1) |
| --- | --- | --- | --- | --- | --- | --- | --- | --- |
| CCc1cc(O)ccc1-c1ccc2c(-c3nc4c([nH]3)CN(C)[C@H](C(=O)N3CCN(C)C[C@@H]3C)C4)n[nH]c2c1 [Compound 3, ((S)-2,4-dimethylpiperazin-1-yl)((S)-2-(6-(2-ethyl-4-hydroxyphenyl)-1H-indazol-3-yl)-5-methyl-4,5,6,7-tetrahydro-3H-imidazo[4,5-c]pyridin-6-yl)methanone] | 86% | 2.6 µL/min/mg | Yes | 10.4 | 9.3 | – | – | – |
| CCc1cc(O)c(F)cc1-c1ccc2c(-c3nc4c([nH]3)CN(C(C)C)[C@H](C(=O)N3CC[C@H](N(C)C)C3)C4)n[nH]c2c1 [Compound C-6, reference compound] | 5% | 51.4 µL/min/mg | Yes | – | – | 2.51 nM | 158 nM | – |
| CCc1cc(O)c(F)cc1-c1ccc2c(-c3nc4c([nH]3)CN(C(C)C)[C@H](C(=O)N3CC(N(C)C)C3)C4)n[nH]c2c1 [Compound D-1, (S)-(3-(dimethylamino)azetidin-1-yl)(2-(6-(2-ethyl-5-fluoro-4-hydroxyphenyl)-1H-indazol-3-yl)-5-isopropyl-4,5,6,7-tetrahydro-3H-imidazo[4,5-c]pyridin-6-yl)methanone] | – | – | – | – | – | – | – | bind in the ATP binding site |
